Data on ten compounds can be found in patent publication US20040259142A1, “Products and methods” (Imperial College Innovations Limited, priority 2003, published 2004).

One assay deals with T1, interferon γ (IFN-γ) (Homo sapiens, UniProt P01579).
T1 construct: purchased Sigma; host or cells: Escherichia coli
T1 sequence (P01579 24-166): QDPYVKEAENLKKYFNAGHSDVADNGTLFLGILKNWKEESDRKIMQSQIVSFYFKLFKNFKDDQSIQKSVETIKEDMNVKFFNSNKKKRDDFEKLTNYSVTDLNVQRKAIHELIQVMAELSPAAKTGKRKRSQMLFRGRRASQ
The assay can be described thus: interferon γ binding to lipid-linked oligosaccharide array on nitrocellulose. From the text:
(§1) The lipid-linked oligosaccharides (in chloroform:methanol:water, 25:25:8 v/v) were applied by jet spray with a sample applicator (Linomat IV, Camag, Switzerland) as 2 mm bands for ‘miniarray’, or as […] spots for ‘microarray’ format, onto 0.45 μm nitrocellulose or 0.2 μm PVDF membranes (both from Bio-Rad, Hemel Hempstead, UK), or aluminium-backed silica gel plates (Merck). When fluorescent NGLs were applied onto the membranes, and examined directly under UV light, 1-2 pmol was clearly visible above the background on the PVDF, whereas on nitrocellulose, 5 pmol was required due to a high fluorescent background. For detection, therefore, the fluorescent NGLs were printed onto PVDF membranes; the non-fluorescent lipid-linked oligosaccharides were printed onto silica gel plates and detected with primulin stain.
(§2) For cytokine/chemokine-binding experiments, the membranes were blocked for 1 h with 3% (w/v) BSA in 10 mM Tris-HCl buffer containing 150 mM NaCl, 2 mM CaCl2 and 0.8 mM MgCl2 (TNCM), overlaid with INFγ or RANTES at 1 μg per ml diluted in TNCM/BSA, incubated for 16 h at 4° C.
(§3) The membranes were washed four times, for 30 min with 10 mM Tris-HCl buffer containing 20 mM NaCl, 5 mM CaCl2 and 2 mM MgCl2 (TNCM-L) to minimize elution of the bound proteins^31. […] Carbohydrate-binding experiments with NGLs resolved by TLC were performed as described^12.

Another assay concerns the target T2, chemokine RANTES (Homo sapiens, UniProt P13501).
T2 construct: purchased R&D systems; host or cells: Escherichia coli
T2 sequence (P13501 24-91): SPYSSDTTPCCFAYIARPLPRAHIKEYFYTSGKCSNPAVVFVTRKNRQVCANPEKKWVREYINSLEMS
The assay can be described thus: RANTES binding to lipid-linked oligosaccharide array on nitrocellulose. As to conditions: array IDs 1-30 at 10 pmol per spot.
Description: as §1, §2, §3

Another assay deals with monoclonal antibody C-14. The assay can be described thus: C-14 antibody binding to lipid-linked oligosaccharide array on nitrocellulose. More on the design: species or system murine. As to conditions: array IDs 1-30 on nitrocellulose, 10 pmol per spot.
Description: as §1
(§4) Experiments were carried out at ambient temperature unless stated otherwise. The dilutions of the antibodies used were those recommended by the manufacturers or providers. Concentrations where known are indicated. For antibody-binding experiments, the membranes were ‘blocked’ for 1 h with 3% (w/v) bovine serum albumin (BSA) in phosphate buffered saline (10 mM phosphate buffer containing 150 mM NaCl) pH 7.4 (PBS), and overlaid with for 2 h with the antibodies diluted in phosphate buffered saline containing 3% BSA (PBS/BSA). […]

The target of assay [1] is T3, recombinant soluble L-selectin IgG chimera (Homo sapiens, UniProt P14151).
T3 construct: recombinant soluble L-selectin IgG chimera; made in house; host or cells: transfected Chinese hamster ovary cells (provided by Dr Gray Shaw, Genetics Institute)
T3 sequence (P14151 39-332 limits assumed): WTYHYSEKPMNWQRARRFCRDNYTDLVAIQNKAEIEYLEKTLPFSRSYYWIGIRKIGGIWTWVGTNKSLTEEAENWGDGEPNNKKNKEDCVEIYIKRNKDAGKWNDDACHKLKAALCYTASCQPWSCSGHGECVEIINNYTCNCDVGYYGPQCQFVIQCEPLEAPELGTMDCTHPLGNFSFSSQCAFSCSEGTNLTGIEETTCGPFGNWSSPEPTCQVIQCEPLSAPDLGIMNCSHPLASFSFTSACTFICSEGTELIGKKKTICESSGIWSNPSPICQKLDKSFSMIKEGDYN
The assay can be described thus: L-selectin binding to lipid-linked oligosaccharide array on nitrocellulose. The settings on record: array IDs 1-30 on nitrocellulose, 10 pmol per spot.
Description: as §1
Selectin-binding experiments were carried out as above except that the membranes were ‘blocked’ 1% (w/v) casein in 10 mM Tris-HCl buffer pH 7.4 containing 50 mM CaCl2 and 150 mM NaCl (TBS/Ca) and overlaid for 2 h with L-selectin (1 μg/ml pre-complexed^42 with biotinylated anti-human IgG from Vector), or E-selectin (at 1 μg/ml) in TBS/Ca. Binding of L-selectin was detected by overlaying with HRP-conjugated streptavidin (Sigma), 10 μg/ml, in TBS/Ca containing 1% casein. Binding of E-selectin was detected by overlaying with biotinylated anti-human IgM (Sigma), 5 μg/ml, followed by the HRP-conjugated streptavidin.

For assay [2], the system named is monoclonal antibody HNK-1 (anti-HNK-1). The assay can be described thus: anti-HNK-1 binding to lipid-linked oligosaccharide arrays on nitrocellulose. As to conditions: array IDs 1-30 on nitrocellulose, 10 pmol per spot.
Description: as §1, §4

A further assay concerns the target TSG-6 (Homo sapiens, UniProt P98066). The assay can be described thus: TSG-6 binding to HA and HA NGL on nitrocellulose-coated FastSlide. The settings on record: 2 mm bands on FastSlide, DAB colour, FIG. 9. The text has this: NGL samples in organic-based solvent mixture (chloroform/methanol/water 25:25:8, by vol), and also polysaccharides, glycosaminoglycans (GAGs) and glycoproteins in water, were arrayed with N2-assisted jet spray as 1-2 mm bands or 150 μm spots.
Binding to the arrayed samples was detected using biotinylated antibodies directed to the proteins being investigated, followed by conventional ELISA-DAB colour reaction or by using CyS-labelled streptavidin.
Similarly, different amounts of hyaluronic acid polysaccharide (HA) (5 to 500 ng) and its oligosaccharide derived NGL, HA 8mer-DHPE (0.05 to 5 pmol), were applied as 2 mm bands onto a nitrocellulose coated FastSlide. The interactions of TSG-6 (a protein which can bind to the HA) with the carbohydrate-containing molecules on the support material, HA and the HA NGL, are shown in FIG. 9.

Assay [3] relates to anti-SSEA-1 monoclonal antibody. The assay can be described thus: anti-SSEA-1 binding to lipid-linked oligosaccharide arrays on membranes. More on the design: species or system murine. As to conditions: array IDs 1-30 on nitrocellulose, 10 pmol per spot.
Description: as §1, §4

The test system of assay [4] is anti-L5 monoclonal antibody. The assay can be described thus: anti-L5 binding to lipid-linked oligosaccharide arrays on nitrocellulose. More on the design: species or system rat. The settings on record: array IDs 1-30 on nitrocellulose, 10 pmol per spot.
Description: as §1, §4

The mark [5] stands for this setting: array IDs 1-30 printed at 1 pmol per spot.
Setting [6] is: array IDs 1-30 at 10 pmol per spot.

Chain of TSG-6 (P98066 18-277, species assumed): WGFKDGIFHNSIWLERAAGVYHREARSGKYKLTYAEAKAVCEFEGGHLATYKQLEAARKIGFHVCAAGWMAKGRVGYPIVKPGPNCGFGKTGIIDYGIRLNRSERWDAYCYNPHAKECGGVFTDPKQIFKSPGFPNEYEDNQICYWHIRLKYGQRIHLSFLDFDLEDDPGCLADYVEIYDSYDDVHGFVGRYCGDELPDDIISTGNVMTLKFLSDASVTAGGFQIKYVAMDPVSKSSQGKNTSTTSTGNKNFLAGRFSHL

3′,6-SU-Le^x-5 [ID 17]: the IFN-γ binding entry on interferon γ (IFN-γ) (setting [5]) was “weak binding”.

3′-SU-Le^x-5 [ID 16]: the IFN-γ binding result on interferon γ (IFN-γ) (setting [5]) is listed as “weak binding”.

Take 6′-SU-3′-SA-Le^x5 [ID 19]: the IFN-γ binding entry on interferon γ (IFN-γ) (setting [6]) is recorded as “additional or increased binding signals”. For the same compound, at chemokine RANTES, the RANTES binding entry was “additional or increased binding signals”.

With `CC(=O)NC1C(OC2C(O)C(CO)OC(OC3C(CO)OC(O)C(O)C3O)C2O)OC(CO)C(OC2OC(CO)C(O)C(O)C2OC2OC(C)C(O)C(O)C2O)C1OC1OC(C)C(O)C(O)C1O` (stereo not shown) [ID 12, lacto-N-neo-difucohexaose I], the “binding of C-14 antibody” value with monoclonal antibody C-14 is “bound”.

For `CC(=O)NC1C(O)CC(OC2C(O)C(CO)OC(OC3C(CO)OC(OC4C(O)C(CO)OC(OC5C(CO)OC(O)C(O)C5O)C4O)C(NC(C)=O)C3OC3OC(C)C(O)C(O)C3O)C2O)(C(=O)O)OC1C(O)C(O)CO` (stereo not shown) [ID 14, 3′-SA-Le^x-5], the L-selectin binding entry in assay [1] was “weak”.

For `O=C(O)C1=C[C@H](O)[C@@H](OS(=O)(=O)O)[C@H](O[C@H]2[C@H](O)[C@@H](NS(=O)(=O)O)[C@@H](O)O[C@@H]2COS(=O)(=O)O)O1` [ID 28, HS/HEP 2mer], the L-selectin binding result in assay [1] is reported as “binding”. Moreover, on interferon γ (IFN-γ) (setting [5]), the IFN-γ binding result is given as “clear preference”.

In the case of HNK-1 [ID 20], the “binding of anti-HNK-1” value in assay [2] is given as “bound”. Besides, the L-selectin binding entry in assay [1] is given as “binding”. Further, at interferon γ (IFN-γ) (setting [6]), the IFN-γ binding entry is listed as “additional or increased binding signals”. Besides, the RANTES binding entry on chemokine RANTES is “additional or increased binding signals”.

Man5-phosphate [ID 21]: in assay [1], the L-selectin binding result is “binding”.

Turning to hyaluronic acid [HA polysaccharide], the “sensitivity of detection of TSG-6 binding” value at TSG-6 is given as “nanograms”.

As to lacto-N-fucopentaose III [ID 10], in assay [3], the “binding of anti-SSEA-1” value is “bound”. Besides, in assay [4], the “binding of anti-L5” value is recorded as “bound”.
